According to patent US5667764A, “Compounds, compositions and methods for binding bio-affecting substances to surface membranes of bio-particles” (Zynaxis, Inc., priority 1992, dated 1997):

Legend:
[1] = test system: myointimal thickening; settings: cell culture or animals after arterial injury; cited from earlier work
[2] = test system: SMC cell surfaces; settings: cited from earlier work
[3] = molecular target: thrombin (Homo sapiens, UniProt P00734+P01008); experiment: Thrombin inhibition (fibrin generation in diluted human plasma); assay type: biochemical; settings: 0.5 nM thrombin; conjugate on ghosts (@1.43×10^7 ghosts/200 ul)
Method: The concentration response for unconjugated anti-coagulant is provided for comparison. Percentage inhibition of thrombin response (y-axis) is recorded as a function of the molar concentration of compound tested (lower x-axis; log scale), and of the number of carrier cells per test sample (upper x-axis; log scale).
To determine whether the anticoagulative properties of the compounds of the invention were retained when coated on the surface of biomembranes, in vitro studies were performed to assess the ability of the compound of invention to inhibit the coagulation enzyme, thrombin. […] Concentration of compound 21 on ghosts was assessed by placing known numbers of ghosts in microtiter plate wells and comparing the observed fluorescence to the fluorescence produced by known standard concentrations of the compound. […] 211:10 (1987), wherein 100 μl a 1:10 dilution of human plasma in phosphate buffered saline (PBS) buffer, 50 μl of PBS containing varying concentrations of labeled ghosts or standard thrombin inhibitor, and 50 μl of PBS containing a constant amount (0.5 nM) of thrombin were added to microtiter plate wells and absorbance changes at 405 nm were recorded in a spectrophotometric plate reader (Bio-Tek) over a 60 minute period. […] The absorbance changes over time data were plotted and area-under-the-curve measurements performed by computer. […]

[4] = test system: vascular smooth muscle cells (SMC); settings: cited from earlier work

Chain of thrombin (P01008 33-464, one chain of several): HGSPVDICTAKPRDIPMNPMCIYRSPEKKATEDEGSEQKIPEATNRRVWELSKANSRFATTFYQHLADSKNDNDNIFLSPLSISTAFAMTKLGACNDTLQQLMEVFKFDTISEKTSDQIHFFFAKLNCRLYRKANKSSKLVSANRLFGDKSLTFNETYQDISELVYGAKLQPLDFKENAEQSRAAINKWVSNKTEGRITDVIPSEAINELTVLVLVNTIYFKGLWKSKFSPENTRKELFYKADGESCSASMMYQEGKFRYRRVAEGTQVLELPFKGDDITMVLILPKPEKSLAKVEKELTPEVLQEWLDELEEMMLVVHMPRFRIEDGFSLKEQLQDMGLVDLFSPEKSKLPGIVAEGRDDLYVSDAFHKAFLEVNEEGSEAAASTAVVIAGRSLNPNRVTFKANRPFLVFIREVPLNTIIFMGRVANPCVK

Heparin
Effect of heparin on smooth muscle cells / after arterial injury [1]: decreased growth and reduced myointimal thickening and cell proliferation | Binding to SMC cell surfaces [2]: binds to SMC cell surfaces via high affinity binding sites and is taken up intracellularly | EC50 [3]: 1.03 nM | Inhibition of cell growth / antiproliferative activity [4]: inhibit the growth of several different cell types, including vascular smooth muscle cells (SMC)
